# Measurements as given in patent US8426420B2, “Heterocyclic pyrazole-carboxamidesas P2Y12 antagonists” (Sanofi, priority 2007, dated 2013).
# Target: human P2Y12 receptor (Homo sapiens, UniProt Q9H244)
# Experiment: Human P2Y12 recombinant cell membrane binding assay with 33P 2MeS-ADP
# Conditions: competition against 33P 2MeS-ADP, membranes of CHO cells with recombinant human P2Y12 receptor
# Method: The ability of the compounds of the formula Ito inhibit the P2Y12 receptor can be assessed by determining the concentration of the compound of the formula I that binds to the human P2Y12 Recombinant Cell Membrane Binding Assay with 33P 2MeS-ADP.
# Human P2Y12 Recombinant Cell Membrane Binding Assay
# The ability of a test compound to bind to the P2Y12 receptor was evaluated in a recombinant cell membrane binding assay. In this competitive binding assay, the test compound competed against a radiolabeled agonist for binding to the P2Y12 receptor, expressed on the cell membrane. Inhibition of binding of the labeled material was measured and correlated to the amount and potency of the test compound. This binding assay is a modification of the procedure described by Takasaki, J. et. al, Mol. Pharmacol., 2001, Vol. 60, pg. 432. A membrane preparation was prepared from Chinese Hamster Ovary (CHO) cells with recombinant expression of the human P2Y12 receptor according to standard procedures as a source of P2Y12.
# To a 96-well microtiterplate the following were added: a) 24 μl of assay buffer (10 mM HEPES, 138 mM NaCl, […] KCl, 12 mM NaHCO3, 1 mM EDTA-Na, 0.1% BSA, pH 7.4) b) 1 μL compound in DMSO c) 50 μL P2Y12 CHO membrane (20 μg/ml) and after 15 min at RT d) 25 μL of 1.61 nM 33P 2MeS-ADP (Perkin Elmer NEN custom synthesis, specific activity ˜2100 Ci/mmol) made in assay buffer.
# After 20 min incubation at RT samples were transferred to 96-well microtiter filterplates (Millipore HTS GF/B), pre-wetted for 20 min with 300 μL of stop buffer (10 mM HEPES, 138 mM NaCl pH 7.4) and then filtered through completely with a Millipore plate vacuum. Next, wells were washed four times with 400 μl/well of stop buffer on a plate vacuum. The plate was disassembled and allowed to air dry overnight with the filter side up over night. The filter plates were snapped into adapter plates and 0.1 mL of Microscint 20 Scintillation Fluid (Perkin Elmer #6013621) was added to each well. The top of the filterplate was sealed with plastic plate covers. The sealed filterplate were incubated 2 hours at RT. A Microbeta Scintillation Counter was used to measure counts.
# Compounds were diluted as 10 mM DMSO stocks and tested in a four-point, five-fold dilution series run in triplicate beginning at 10 μM, final concentration. Data were analyzed using a four-parameter curve fit with a fixed minimum and maximum experimentally defined as the average positive and negative controls on each plate.
# Chain of human P2Y12 receptor (Q9H244 whole entry): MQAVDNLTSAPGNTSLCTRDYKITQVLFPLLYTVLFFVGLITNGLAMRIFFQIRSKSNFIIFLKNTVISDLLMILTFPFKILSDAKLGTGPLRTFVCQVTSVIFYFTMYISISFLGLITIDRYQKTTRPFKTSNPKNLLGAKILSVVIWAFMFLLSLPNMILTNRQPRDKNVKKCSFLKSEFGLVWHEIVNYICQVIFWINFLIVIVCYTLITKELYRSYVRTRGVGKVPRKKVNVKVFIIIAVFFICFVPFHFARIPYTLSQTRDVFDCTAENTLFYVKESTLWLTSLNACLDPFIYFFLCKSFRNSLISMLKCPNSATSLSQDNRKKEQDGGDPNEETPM
row,SMILES,IC50 [nM]
1,"CCCCOC(=O)CC[C@H](NC(=O)c1cc(OCC(=O)N2CCC[C@H]2C(=O)NC2CCC2)n(-c2ccccc2)n1)C(=O)N1CCN(C(=O)OCC)CC1 [Example 134, 4-[(S)-2-({5-[2-((S)-2-Cyclobutylcarbamoyl-pyrrolidin-1-yl)-2-oxo-ethoxy]-1-phenyl-1H-pyrazole-3-carbonyl}-amino)-4-butoxycarbonyl-butyryl]-piperazine-1-carboxylic acid ethyl ester]",42
2,"CCOC(=O)N1CCN(C(=O)[C@H](CCC(=O)OC(C)C)NC(=O)c2cc(OCC(=O)N3CCC[C@H]3C(=O)NC3CCC3)n(-c3ccccc3)n2)CC1 [Example 137, 4-[(S)-2-({5-[2-((S)-2-Cyclobutylcarbamoyl-pyrrolidin-1-yl)-2-oxo-ethoxy]-1-phenyl-1H-pyrazole-3-carbonyl}-amino)-4-isopropoxycarbonyl-butyryl]-piperazine-1-carboxylic acid ethyl ester]",148
3,"CCOC(=O)CC[C@H](NC(=O)c1cc(OCC(=O)N2CCC[C@H]2C(=O)NC2CCC2)n(-c2cccc(F)c2)n1)C(=O)N1CCN(C(=O)OCC)CC1 [Example 140, 4-((S)-2-{[5-[2-((S)-2-Cyclobutylcarbamoyl-pyrrolidin-1-yl)-2-oxo-ethoxy]-1-(3-fluoro-phenyl)-1H-pyrazole-3-carbonyl]-amino}-4-ethoxyoxycarbonyl-butyryl)-piperazine-1-carboxylic acid ethyl ester]",173
4,"CCOC(=O)N1CCN(C(=O)[C@H](CCC(=O)O)NC(=O)c2cc(OCC(=O)N3CCC[C@H]3C(=O)NCCF)n(-c3ccccc3)n2)[C@H](C)C1 [Example 151, (R)-4-[(S)-4-Carboxy-2-({5-[2-((S)-2-(2-fluoroethyl-carbamoyl)-pyrrolidin-1-yl)-2-oxo-ethoxy]-1-phenyl-1H-pyrazole-3-carbonyl}-amino)-butyryl]-3-methyl-piperazine-1-carboxylic acid ethyl ester]",166
5,"CCOC(=O)N1CCN(C(=O)[C@H](CCC(=O)O)NC(=O)c2cc(OCC(=O)N3CCC[C@H]3C(=O)NCC3CC3)n(-c3ccccc3)n2)[C@H](C)C1 [Example 152, (R)-4-[(S)-4-Carboxy-2-({5-[2-((S)-2-(cyclopropylmethyl-carbamoyl)-pyrrolidin-1-yl)-2-oxo-ethoxy]-1-phenyl-1H-pyrazole-3-carbonyl}-amino)-butyryl]-3-methyl-piperazine-1-carboxylic acid ethyl ester]",37
6,"CCOC(=O)N1CCN(C(=O)[C@H](CCC(=O)O)NC(=O)c2cc(OCC(=O)N3CCCC3c3cccs3)n(-c3ccccc3)n2)CC1 (stereo partly drawn) [Example 167, 4-[(S)-4-Carboxy-2-({5-[2-oxo-2-(2-thiophen-2-yl-pyrrolidin-1-yl)-ethoxy]-1-phenyl-1H-pyrazole-3-carbonyl}-amino)-butyryl]-piperazine-1-carboxylic acid ethyl ester]",146
7,"CCOC(=O)N1CCN(C(=O)[C@H](CCC(=O)O)NC(=O)c2cc(OCC(=O)N3CCC[C@H]3c3ccccc3)n(-c3ccccc3)n2)CC1 [Example 170, 4-[(S)-4-Carboxy-2-({5-[2-oxo-2-((S)-2-phenyl-pyrrolidin-1-yl)-ethoxy]-1-phenyl-1H-pyrazole-3-carbonyl}-amino)-butyryl]-piperazine-1-carboxylic acid ethyl ester]",86
8,"CCCOC(=O)N1CCN(C(=O)C(NC(=O)c2cc(OCC(=O)N3CCC[C@H]3C(=O)NC3CCC3)n(-c3ccccc3)n2)C(C)F)CC1 (stereo partly drawn) [Example 175, 4-[2-({5-[2-((S)-2-Cyclobutylcarbamoyl-pyrrolidin-1-yl)-2-oxo-ethoxy]-1-phenyl-1H-pyrazole-3-carbonyl}-amino)-3-fluoro-butyryl]-piperazine-1-carboxylic acid propyl ester]",179
9,"CCCCOC(=O)N1CCN(C(=O)C(NC(=O)c2cc(OCC(=O)N3CCC[C@H]3C(=O)NC3CCC3)n(-c3ccccc3)n2)C(C)F)CC1 (stereo partly drawn) [Example 176, 4-[2-({5-[2-((S)-2-Cyclobutylcarbamoyl-pyrrolidin-1-yl)-2-oxo-ethoxy]-1-phenyl-1H-pyrazole-3-carbonyl}-amino)-3-fluoro-butyryl]-piperazine-1-carboxylic acid butyl ester]",45
10,"CCCCOC(=O)N1CCN(C(=O)[C@H](C)NC(=O)c2cc(OCC(=O)N3CCC[C@H]3C(=O)NC3CCC3)n(-c3ccccc3)n2)CC1 [Example 186, 4-[(S)-2-({5-[2-((S)-2-Cyclobutylcarbamoyl-pyrrolidin-1-yl)-2-oxo-ethoxy]-1-phenyl-1H-pyrazole-3-carbonyl}-amino)-propionyl]-piperazine-1-carboxylic acid butyl ester]",16
11,"CCOC(=O)N1CCN(C(=O)[C@H](CCCCOCc2ccccc2)NC(=O)c2cc(OCC(=O)N3CCC[C@H]3C(=O)NC3CCC3)n(-c3ccccc3)n2)CC1 [Example 195, 4-[(S)-6-Benzyloxy-2-({5-[2-((S)-2-cyclobutylcarbamoyl-pyrrolidin-1-yl)-2-oxo-ethoxy]-1-phenyl-1H-pyrazole-3-carbonyl}-amino)-hexanoyl]-piperazine-1-carboxylic acid ethyl ester]",88
12,"CCCCOC(=O)N1CCN(C(=O)[C@H](CCCCOCc2ccccc2)NC(=O)c2cc(OCC(=O)N3CCC[C@H]3C(=O)NC3CCC3)n(-c3ccccc3)n2)CC1 [Example 196, 4-[(S)-6-Benzyloxy-2-({5-[2-((S)-2-cyclobutylcarbamoyl-pyrrolidin-1-yl)-2-oxo-ethoxy]-1-phenyl-1H-pyrazole-3-carbonyl}-amino)-hexanoyl]-piperazine-1-carboxylic acid butyl ester]",23
13,"O=C(N[C@@H](CCCCOCc1ccccc1)C(=O)N1CCN(C(=O)OC2CCC2)CC1)c1cc(OCC(=O)N2CCC[C@H]2C(=O)NC2CCC2)n(-c2ccccc2)n1 [Example 197, 4-[(S)-6-Benzyloxy-2-({5-[2-((S)-2-cyclobutylcarbamoyl-pyrrolidin-1-yl)-2-oxo-ethoxy]-1-phenyl-1H-pyrazole-3-carbonyl}-amino)-hexanoyl]-piperazine-1-carboxylic acid cyclobutyl ester]",99
14,"CCCCOC(=O)N1CCN(C(=O)[C@H](CCCOC(=O)C(C)C)NC(=O)c2cc(OCC(=O)N3CCC[C@H]3C(=O)NC3CCC3)n(-c3ccccc3)n2)CC1 [Example 212, 4-[(S)-2-({5-[2-((S)-2-Cyclobutylcarbamoyl-pyrrolidin-1-yl)-2-oxo-ethoxy]-1-phenyl-1H-pyrazole-3-carbonyl}-amino)-5-isobutyryloxy-pentanoyl]-piperazine-1-carboxylic acid butyl ester]",17
15,"CCCCOC(=O)N1CCN(C(=O)[C@H](CC2CCCCC2)NC(=O)c2cc(OCC(=O)N3CCC[C@H]3C(=O)NC3CCC3)n(-c3ccccc3)n2)CC1 [Example 225, 4-[(S)-2-({5-[2-((S)-2-Cyclobutylcarbamoyl-pyrrolidin-1-yl)-2-oxo-ethoxy]-1-phenyl-1H-pyrazole-3-carbonyl}-amino)-3-cyclohexyl-propionyl]-piperazine-1-carboxylic acid butyl ester]",136
16,"CCCCOC(=O)N1CCN(C(=O)[C@H](CC(C)C)NC(=O)c2cc(OCC(=O)N3CCC[C@H]3C(=O)NC3CCC3)n(-c3ccccc3)n2)CC1 [Example 226, 4-[(S)-2-({5-[2-((S)-2-Cyclobutylcarbamoyl-pyrrolidin-1-yl)-2-oxo-ethoxy]-1-phenyl-1H-pyrazole-3-carbonyl}-amino)-4-methyl-pentanoyl]-piperazine-1-carboxylic acid butyl ester]",59
17,"CCCCOC(=O)N1CCN(C(=O)[C@@H](NC(=O)c2cc(OCC(=O)N3CCC[C@H]3C(=O)NC3CCC3)n(-c3ccccc3)n2)[C@H](C)CC)CC1 [Example 229, 4-[(2S,3R)-2-({5-[2-((S)-2-Cyclobutylcarbamoyl-pyrrolidin-1-yl)-2-oxo-ethoxy]-1-phenyl-1H-pyrazole-3-carbonyl}-amino)-3-methyl-pentanoyl]-piperazine-1-carboxylic acid butyl ester]",22
18,"CCCCOC(=O)N1CCN(C(=O)[C@H](CC2CC2)NC(=O)c2cc(OCC(=O)N3CCC[C@H]3C(=O)NC3CCC3)n(-c3ccccc3)n2)CC1 [Example 234, 4-[(S)-2-({5-[2-((S)-2-Cyclobutylcarbamoyl-pyrrolidin-1-yl)-2-oxo-ethoxy]-1-phenyl-1H-pyrazole-3-carbonyl}-amino)-3-cyclopropyl-propionyl]-piperazine-1-carboxylic acid butyl ester]",85
